Results on seven compounds are retold here after patent US20220356169A1, “TETRAZINES FOR HIGH CLICK RELEASE SPEED AND YIELD” (priority 2019, published 2022).

Marks after values point to notes of the source that are not given here.

What is called viability is a read-out of living cells in per cent, often relative to untreated cells.

The test system of data set [1] is ADC AVP0458-TCO-MMAE. In words: Triggered drug (MMAE) release from ADC in 50% mouse plasma, HPLC-SIM-MS. The note with it: 24 h; 50% mouse plasma, 37° C.; mean ± SD (n = 3). As to the method: In a 1.5 mL vial, the following was combined: 650 μL mouse plasma, 600 μL PBS, 20 μL ADC (1.62 μg/μL in PBS) and 7.5 μL d8-MMAE solution (0.167 μg/μL, internal standard). Next, aliquots of 20 μL were prepared to which 5.2 μL of a tetrazine solution (0.25 mM in 1:1 DMSO/H2O) was added and the solution was incubated at 37° C. At various times, 100 μL of cold MeCN was added to the aliquot and the mixture was vortexed, stored at 4° C. for 30 min. and centrifuged. 20 μL of supernatant was taken and combined with 100 μL of 1% formic acid (aq) solution. This sample was analysed with HPLC-SIM-MS to quantify the ratio of free MMAE and d8-MMAE, which is a measure of the release yield.

Data set [2] in a line: Triggered release of Construct-A from TCO trigger, HPLC-MS/PDA. As to the method:
At the specified time point, the sample was analyzed by HPLC-MS/PDA, and the release yield was determined from the observed amounts of IEDDA adducts, elimination product, and/or released Construct. In case the release was not complete, the sample was incubated at 37° C. for additional time and analyzed once again.

Data set [3] can be described thus: Cell proliferation assay (MTT). The format is cell-based. The note with it: human, 3 days incubation, mean ± SEM (n = 6), read-out: LS174T cell viability (%); for viability at 72 h, 0.01 μM: 0.01 μM activator; for viability at 72 h, 0.1 μM: 0.1 μM activator; for viability at 72 h, 1 μM: 1 μM activator. The procedure:
The human colon carcinoma LS174T cell line was obtained from the American Type Culture Collection and cultured in RPMI-1640 medium supplemented with 2 mM glutamine and 10% heat inactivated fetal calf serum. Twenty-four hours prior to the experiment, the cells were plated in 96-well plates at a 5000 cells/well density. The cells were then incubated with serial dilutions (10 nM-1 μM; n=6) of activators 2.7, 2.8, 2.14, 2.16, 2.17, 2.18 and 2.19 in culture medium for 72h at 37° C. The % cell proliferation was assessed by an MTT assay, in comparison to cells incubated in culture medium without activator. No toxicity was observed when the LS174T cells were incubated with the tested activators (and possible metabolites formed in the presence of serum) for 3-days at a 0.01-1 μM activator concentration.

Take `Nc1cccnc1-c1nnc(-c2ncccc2N)nn1` [2.1, 2,2′-(1,2,4,5-Tetrazine-3,6-diyl)bis(pyridin-3-amine)]: the “MMAE release from ADC AVP0458-TCO-MMAE, Release (%)” value (from here on “MMAE release … (%)”) in data set [1] is 32.1 ± 0.7^b %.

With `CC(=O)Nc1cccnc1-c1nnc(-c2ncccc2NC(C)=O)nn1` [2.2, N,N′-(2,2′-(1,2,4,5-Tetrazine-3,6-diyl)bis(pyridine-3,2-diyl))diacetamide], the “MMAE release … (%)” value in data set [1] amounted to 79.3 ± 0.4%. Also, the Construct release % is 18 h: 74% in data set [2] (TCO 3.11, doxorubicin, 18 h, 37° C.); 42 h: 81% in data set [2] (TCO 3.11, doxorubicin, 42 h, 37° C.); 5 min: 4% in data set [2] (TCO 3.11, released construct doxorubicin, 5 min); 5 min: 100% in data set [2] (TCO 3.23, released construct dimethylamine, 5 min); 5 min: 98% in data set [2] (TCO 3.32, released construct dimethylamine, 5 min).

For the compound `Nc1cnccc1-c1nnc(-c2ccncc2N)nn1` [2.3, 4,4′-(1,2,4,5-Tetrazine-3,6-diyl)bis(pyridin-3-amine)], in data set [1], the “MMAE release … (%)” value worked out at 88.5 ± 0.1%.

Take `CC(=O)Nc1cnccc1-c1nnc(-c2ccncc2NC(C)=O)nn1` [2.4, N,N′-(4,4′-(1,2,4,5-Tetrazine-3,6-diyl)bis(pyridine-4,3-diyl))diacetamide]: in data set [1], the “MMAE release … (%)” value is reported as 96.0 ± 0.3%.

Take `Cc1nnc(C)nn1` [2.17, 3,6-bismethyl-tetrazine, reference compound]: in data set [3], the viability at 72 h, 0.01 μM came out at 90.2 ± 4.5%; the viability at 72 h, 0.1 μM was determined as 87.9 ± 6.4%; the viability at 72 h, 1 μM was 85.7 ± 7.4%.

Turning to `c1ccc(-c2nnc(-c3ccccn3)nn2)nc1` [2.18, 3,6-bis(2-pyridinyl)-tetrazine, reference compound], in data set [3], the viability at 72 h, 0.01 μM amounted to 101 ± 3%; the viability at 72 h, 0.1 μM was 101 ± 2.8%; the viability at 72 h, 1 μM amounted to 102 ± 3.6%.

`c1cc(-c2nnc(-c3ccncc3)nn2)ccn1` [2.19, 3,6-bis(4-pyridinyl)-tetrazine, reference compound]: in data set [3], the viability at 72 h, 0.01 μM is 87 ± 2.6%; the viability at 72 h, 0.1 μM is 88.7 ± 2.5%; the viability at 72 h, 1 μM stood at 91.3 ± 3%.
